Source: ChEMBL document CHEMBL5518192, “Targeting aromatase to restrain oestrogen production and developing efficacious interventions against ER-positive cancer” (Eur J Med Chem, 2024)

Key:
Aromatase [1] = molecular target: T1, Aromatase (Homo sapiens, UniProt P11511)
T1 sequence (P11511 whole entry): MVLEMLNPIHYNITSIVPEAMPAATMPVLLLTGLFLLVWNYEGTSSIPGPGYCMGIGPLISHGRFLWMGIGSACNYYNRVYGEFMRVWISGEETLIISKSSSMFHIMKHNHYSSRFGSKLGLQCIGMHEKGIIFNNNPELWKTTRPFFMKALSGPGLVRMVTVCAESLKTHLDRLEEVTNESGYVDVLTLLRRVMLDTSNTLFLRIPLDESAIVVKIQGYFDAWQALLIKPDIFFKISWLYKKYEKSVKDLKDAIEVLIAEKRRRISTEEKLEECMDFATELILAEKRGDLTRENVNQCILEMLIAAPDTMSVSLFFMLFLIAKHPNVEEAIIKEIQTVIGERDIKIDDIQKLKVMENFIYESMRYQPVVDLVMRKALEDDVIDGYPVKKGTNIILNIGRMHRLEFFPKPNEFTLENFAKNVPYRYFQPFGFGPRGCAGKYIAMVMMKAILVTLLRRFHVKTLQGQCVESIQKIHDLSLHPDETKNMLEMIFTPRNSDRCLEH
Description: Inhibition of human aromatase preincubated for 10 mins followed by NADP+/fluorogenic substrate mixture addition and measured for 60 mins by fluorimetric assay

Hs-578T = experiment: cells; details: Homo sapiens, 48 h, read-out: GI
BT-549 = experiment: cells; details: Homo sapiens, BT-549, 48 h, read-out: GI
physchem = details: octanol/water
Description: Octanol/water partition coefficient, log P of the compound

Albumin [2] = molecular target: T2, Albumin (Homo sapiens, UniProt P02768); experiment: Binding affinity to human serum albumin phosphate buffer at pH 7.4 assessed as conformational change in HSA by measuring increase in absorbance at 20 uM by UV-Vis absorption spectrum based analysis; type: ADME; details: isolated protein, pH 7.4, 20 µM
MDA-MB-468 = experiment: Growth inhibition of estrogen receptor negative human MDA-MB-468 cells at 10 uM incubated for 48 hrs by SRB assay relative to control; type: functional; details: read-out: GI
MCF7 = experiment: cells; details: Homo sapiens, MCF7, 48 h, read-out: GI
T47D = experiment: cells; details: Homo sapiens, 48 h, read-out: GI
MDA-MB-231 = experiment: Growth inhibition of estrogen receptor negative human MDA-MB-231 cells at 10 uM incubated for 48 hrs by SRB assay relative to control; type: functional; details: read-out: GI
Aromatase [3] = molecular target: T1, Aromatase; experiment: Binding affinity to human aromatase assessed as inhibition constant by Cheng-Prosuff equation based analysis
in vitro = details: human, plasma
Description: Stability in human plasma assessed drug degradation at 50 uM measured after 120 mins by spectrometer

Aromatase [4] = molecular target: T1, Aromatase; experiment: Binding affinity to human aromatase assessed as hyperchromic shift by measuring increase in absorbance intensity at 5 uM by UV-Vis spectral analysis
Aromatase [5] = molecular target: T1, Aromatase; experiment: Binding affinity to human aromatase assessed as binding constant by Benesi-Hildebrand equation based analysis
Albumin [6] = molecular target: T2, Albumin; experiment: Binding affinity to human serum albumin assessed as binding constant by spectrophotometer; type: ADME; details: isolated protein
Aromatase [7] = molecular target: T1, Aromatase; experiment: Competitive inhibition of human aromatase using varying concentrations of androstenedione as substrate assessed as […] in Km with constant Vmax at 10 uM by Lineweaver-Burk equation based analysis
Aromatase [8] = molecular target: T1, Aromatase; experiment: Binding affinity to human aromatase assessed as change in free energy

T2 sequence (P02768 whole entry): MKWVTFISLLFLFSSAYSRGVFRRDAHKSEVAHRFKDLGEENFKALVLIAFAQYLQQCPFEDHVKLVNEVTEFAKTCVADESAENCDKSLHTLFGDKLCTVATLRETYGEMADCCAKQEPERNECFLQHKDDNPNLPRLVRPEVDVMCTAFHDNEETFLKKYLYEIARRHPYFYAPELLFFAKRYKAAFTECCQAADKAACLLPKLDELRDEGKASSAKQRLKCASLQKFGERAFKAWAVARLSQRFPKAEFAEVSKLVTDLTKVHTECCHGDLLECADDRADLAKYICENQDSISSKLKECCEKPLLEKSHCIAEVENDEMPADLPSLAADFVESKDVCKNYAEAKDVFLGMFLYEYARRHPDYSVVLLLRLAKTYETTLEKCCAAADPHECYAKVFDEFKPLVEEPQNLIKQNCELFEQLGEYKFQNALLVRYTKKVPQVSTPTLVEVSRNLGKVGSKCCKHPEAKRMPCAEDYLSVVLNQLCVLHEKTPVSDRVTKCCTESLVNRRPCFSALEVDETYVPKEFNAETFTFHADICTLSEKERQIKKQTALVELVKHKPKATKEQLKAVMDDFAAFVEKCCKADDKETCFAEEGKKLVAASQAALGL

CC(=C(c1ccccc1)c1ccc(NCCCn2cc(C(=O)C(=O)O)c3ccccc32)cc1)c1ccccc1
IC50 (Aromatase [1]): 0.178 µM
inhibition of growth at 10 µM (Hs-578T): 14.1%
inhibition of growth at 10 µM (BT-549): 14.8%
logP (physchem): 4.61

COc1ccccc1/C(C)=C(/c1ccccc1)c1ccc(NCCCCCn2cc(C(=O)C(=O)O)c3ccccc32)cc1
IC50 (Aromatase [1]): 12.3 µM
logP (physchem): 4.46

CCOC(=O)C(=O)c1cn(CCNc2ccc(C(=C(C)c3ccccc3)c3ccccc3)cc2)c2ccccc12
IC50 (Aromatase [1]): 1.39 µM
logP (physchem): 4.28

CCOC(=O)C(=O)c1cn(CCCCNc2ccc(/C(=C(/C)c3ccccc3OC)c3ccccc3)cc2)c2ccccc12
IC50 (Aromatase [1]): 3.2 µM
logP (physchem): 4.13

CCOC(=O)C(=O)Nc1ccc(/C(=C(/C)c2ccc(Cl)cc2)c2ccccc2)cc1
Activity (Albumin [2]): Active

CCOC(=O)C(=O)Nc1ccc(/C(=C(/C)c2ccc(OC)cc2)c2ccccc2)cc1
Activity (Albumin [2]): Active

CCOC(=O)C(=O)c1cn(CCCCCCNc2ccc(C(=C(C)c3ccccc3)c3ccccc3)cc2)c2ccccc12
IC50 (Aromatase [1]): 1.94 µM
logP (physchem): 4.98

C/C(=C(\c1ccccc1)c1ccc(NCCCCCn2cc(C(=O)C(=O)O)c3ccccc32)cc1)c1cccc(Br)c1
IC50 (Aromatase [1]): 0.8 µM
logP (physchem): 5.33

COc1ccccc1/C(C)=C(/c1ccccc1)c1ccc(NCCCCn2cc(C(=O)C(=O)O)c3ccccc32)cc1
IC50 (Aromatase [1]): 0.55 µM
logP (physchem): 4.29

C/C(=C(\c1ccccc1)c1ccc(NCCCCn2cc(C(=O)C(=O)O)c3ccccc32)cc1)c1cccc(Br)c1
IC50 (Aromatase [1]): 6.8 µM
logP (physchem): 5.15

CC(=C(c1ccccc1)c1ccc(NCCn2cc(C(=O)C(=O)O)c3ccccc32)cc1)c1ccccc1
inhibition of growth at 10 µM (MDA-MB-468): 55.1%
inhibition of growth at 10 µM (MCF7): 47.3%
inhibition of growth at 10 µM (T47D): 38.9%
IC50 (Aromatase [1]): 9.73 µM
inhibition of growth at 10 µM (Hs-578T): 46.4%
inhibition of growth at 10 µM (BT-549): 32.5%
logP (physchem): 4.43
inhibition of growth at 10 µM (MDA-MB-231): 13.3%

CCOC(=O)C(=O)c1cn(CCCCNc2ccc(C(=C(C)c3ccccc3)c3ccccc3)cc2)c2ccccc12
inhibition of growth at 10 µM (T47D): 5.76%
IC50 (Aromatase [1]): 0.5 µM
logP (physchem): 4.63

CCOC(=O)C(=O)c1cn(CCCCNc2ccc(/C(=C(/C)c3cccc(Br)c3)c3ccccc3)cc2)c2ccccc12
IC50 (Aromatase [1]): 3.86 µM
logP (physchem): 4.99

CC(=C(c1ccccc1)c1ccc(NCCCCCn2cc(C(=O)C(=O)O)c3ccccc32)cc1)c1ccccc1
inhibition of growth at 10 µM (MDA-MB-468): 7.71%
inhibition of growth at 10 µM (T47D): 13%
IC50 (Aromatase [1]): 3.17 µM
inhibition of growth at 10 µM (Hs-578T): 12.4%
logP (physchem): 4.97

CC(=C(c1ccccc1)c1ccc(NCCCCn2cc(C(=O)C(=O)O)c3ccccc32)cc1)c1ccccc1
inhibition of growth at 10 µM (MDA-MB-468): 12.9%
inhibition of growth at 10 µM (MCF7): 14.3%
inhibition of growth at 10 µM (T47D): 13.7%
IC50 (Aromatase [1]): 1.37 µM
inhibition of growth at 10 µM (Hs-578T): 60.2%
inhibition of growth at 10 µM (BT-549): 40.2%
logP (physchem): 4.79

CCOC(=O)C(=O)c1cn(CCCNc2ccc(C(=C(C)c3ccccc3)c3ccccc3)cc2)c2ccccc12
inhibition of growth at 10 µM (MCF7): 10.9%
inhibition of growth at 10 µM (T47D): 41%
IC50 (Aromatase [1]): 0.65 µM
logP (physchem): 4.46
inhibition of growth at 10 µM (MDA-MB-231): 13.6%

N#Cc1ccc(C(c2ccc(C#N)cc2)n2cncn2)cc1 [LETROZOLE]
logP (physchem): 2.29

CCOC(=O)C(=O)c1cn(CCCCCNc2ccc(/C(=C(/C)c3cccc(Br)c3)c3ccccc3)cc2)c2ccccc12
IC50 (Aromatase [1]): 0.79 µM
logP (physchem): 5.16

CCOC(=O)C(=O)c1cn(CCCCCNc2ccc(C(=C(C)c3ccccc3)c3ccccc3)cc2)c2ccccc12
Ki (Aromatase [3]): 0.026 µM
inhibition of growth at 10 µM (MDA-MB-468): 24.3%
inhibition of growth at 10 µM (MCF7): 8.48%
inhibition of growth at 10 µM (T47D): 30.1%
IC50 (Aromatase [1]): 0.054 µM
metabolised at 2 h, 50 µM (in vitro): 15.5%
Activity (Aromatase [4]): Active
inhibition of growth at 10 µM (Hs-578T): 6.04%
Ka (Aromatase [5]): 5.5 10^4/M
Activity (Albumin [2]): Active
Ka (Albumin [6]): 2.8 10^4/M
inhibition (INH) (Aromatase [7]): Active
logP (physchem): 4.81
inhibition of growth at 10 µM (MDA-MB-231): 18.2%
deltaG (Aromatase [8]): -6.72 kcal/mol

CCOC(=O)C(=O)c1cn(CCCCCNc2ccc(/C(=C(/C)c3ccccc3OC)c3ccccc3)cc2)c2ccccc12
IC50 (Aromatase [1]): 0.133 µM
logP (physchem): 4.31

CC(=C(c1ccccc1)c1ccc(NCCCCCCn2cc(C(=O)C(=O)O)c3ccccc32)cc1)c1ccccc1
logP (physchem): 5.15

CC/C(=C(\c1ccccc1)c1ccc(OCCN(C)C)cc1)c1ccccc1 [TAMOXIFEN]
inhibition of growth at 10 µM (MDA-MB-468): -13.3%
inhibition of growth at 10 µM (MCF7): -10.3%
inhibition of growth at 10 µM (Hs-578T): 39.5%
inhibition of growth at 10 µM (BT-549): 30.2%
inhibition of growth at 10 µM (MDA-MB-231): 54.8%
